This note sets out measurements from the supplement of paper PMC10307832.

Common to all, as to test: relative viability (nuclei count vs DMSO), 5 days (fraction); higher = more cells survive
Compound in experiment [1]: O[C@@H](COc1cccc2ncccc12)CN1CCN([C@@H]2c3ccccc3[C@@H]3[C@H](c4ccccc42)C3(F)F)CC1 [Zosuquidar] + Cc1cc(Nc2cc(N3CCN(C)CC3)nc(Sc3ccc(NC(=O)C4CC4)cc3)n2)n[nH]1 [Tozasertib] (partner 0.1 µM)
An outline of the steps: (§1)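 Values are medians from duplicate plates. Each reflects relative viability, defined as the nuclei count of treated wells over that of vehicle wells. Lung cancer cell lines in 1536-well plates were pin-tool dosed one day after seeding with one drug alone or with a fixed anchor-drug dose plus five library-drug doses (not always all listed) in √10 steps, then fixed, stained and imaged at 4× after 5 days.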

Compound in experiment [2]: COc1cc2nccc(Oc3ccc(NC(=O)C4(C(=O)Nc5ccc(F)cc5)CC4)cc3)c2cc1OC [Cabozantinib] + Cc1nc(NC(=O)N2CCC[C@H]2C(N)=O)sc1-c1ccnc(C(C)(C)C(F)(F)F)c1 [Alpelisib] (partner 2 µM)
In short, it runs like this: as §1

Compound in experiment [3]: C1=CC(=CC=C1NC(=S)NNC2=C(C=C(C=C2[N+](=O)[O-])C(F)(F)F)[N+](=O)[O-])F [Kobe2602] + CC1(C)CCC(c2ccc(Cl)cc2)=C(CN2CCN(c3ccc(C(=O)NS(=O)(=O)c4ccc(N[C@H](CCN5CCOCC5)CSc5ccccc5)c(S(=O)(=O)C(F)(F)F)c4)cc3)CC2)C1 [Navitoclax] (partner 0.5 µM)
In short, it runs like this: as §1

Compound in experiment [4]: COc1cc2nccc(Oc3ccc(NC(=O)C4(C(=O)Nc5ccc(F)cc5)CC4)cc3)c2cc1OC [Cabozantinib] + Nc1nc2[nH]cc(CCc3ccc(C(=O)N[C@@H](CCC(=O)O)C(=O)O)cc3)c2c(=O)[nH]1 [Pemetrexed] (partner 0.2 µM)
In short, it runs like this:
as §1

Consider UMC-11, for which the relative viability in experiment [1] (first compound 0.01 µM) stood at 0.207; in experiment [1] (first compound 0.03162 µM), 0.194; in experiment [1] (first compound 0.1 µM) it was 0.201; in experiment [1] (first compound 0.3162 µM), 0.208; in experiment [1] (first compound 1 µM), 0.194; in experiment [2] (first compound 0.02 µM), 0.848. Moreover, the relative viability in experiment [2] (first compound 0.06325 µM) is 1.1; in experiment [2] (first compound 0.2 µM), 1.01; in experiment [2] (first compound 0.6325 µM), 1.05; in experiment [2] (first compound 2 µM), 1.02; in experiment [3] (first compound 0.2 µM), 0.322; in experiment [3] (first compound 0.6325 µM), 0.327. For the same cell line, the relative viability came out at 0.292 in experiment [3] (first compound 2 µM); 0.312 in experiment [3] (first compound 6.325 µM); 0.316 in experiment [3] (first compound 20 µM); 0.802 in experiment [4] (first compound 0.02 µM); 0.879 in experiment [4] (first compound 0.06325 µM); 0.782 in experiment [4] (first compound 0.2 µM). The relative viability in experiment [4] (first compound 0.6325 µM) is 0.837; in experiment [4] (first compound 2 µM), 0.747.
